Measurements: ChEMBL document CHEMBL5725366, “Oxindole compounds carrying a nitrogen-bound spiro substituent and use thereof for treating vasopressin-related diseases” (2017)

molecular target: T1, Vasopressin V1b receptor (Homo sapiens, UniProt P47901); test: The nonspecific binding was determined with 1 μM AVP (Fluka 94836). All determinations were carried out as duplicate determinations. […] The liquid scintillation measurement took place in a Microbeta TriLux 12 (Wallac).
T1 sequence (P47901 whole entry): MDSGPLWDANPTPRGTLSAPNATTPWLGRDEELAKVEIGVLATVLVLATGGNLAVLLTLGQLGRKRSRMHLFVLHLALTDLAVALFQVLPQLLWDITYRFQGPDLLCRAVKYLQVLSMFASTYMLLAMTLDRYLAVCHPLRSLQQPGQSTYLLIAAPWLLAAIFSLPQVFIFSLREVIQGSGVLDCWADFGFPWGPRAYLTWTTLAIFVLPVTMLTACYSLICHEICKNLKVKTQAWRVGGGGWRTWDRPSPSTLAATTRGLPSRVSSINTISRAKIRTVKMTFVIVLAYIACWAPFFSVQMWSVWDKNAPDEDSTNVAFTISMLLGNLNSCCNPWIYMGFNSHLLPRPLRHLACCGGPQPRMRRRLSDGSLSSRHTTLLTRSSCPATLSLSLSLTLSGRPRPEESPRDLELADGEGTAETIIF

Ki, in the range around 5.5 nM:
COc1ccc(S(=O)(=O)N2C(=O)C(c3ccc(F)cc3OC)(N3CC4(CN(C5CCN(C)CC5)C4)C3)C3C=C(C#N)C=CC32)nc1 (stereo not given)
CCOc1ccc(OC)cc1[C@]1(N2CC3(CN(C4CCN(C)CC4)C3)C2)C(=O)N(S(=O)(=O)c2ccccn2)C2C=CC(C#N)=CC21 (stereo not given in full)
CCOc1ccc(OC)c(C2(N3CC4(CN(C5CCN(C)CC5)C4)C3)C(=O)N(S(=O)(=O)c3ccc(OC)cc3)C3C=CC(C#N)=CC32)c1 (stereo not given)
CCOc1ccc(OC)cc1[C@]1(N2CC3(CN(C4CCN(C)CC4)C3)C2)C(=O)N(S(=O)(=O)c2ccc(OC)nc2)C2C=CC(C#N)=CC21 (stereo not given in full)
COc1ccc(S(=O)(=O)N2C(=O)C(c3ccccc3OC)(N3CC4(CN(N5CCN(C)CC5)C4)C3)C3C=C(C#N)C=CC32)nc1 (racemic)
COc1ccc(S(=O)(=O)N2C(=O)C(c3ccccc3OC)(N3CC4(CN(C5CCN(C)CC5)C4)C3)C3C=C(C#N)C=CC32)nc1 (racemic)
CCOc1ccc(OC)cc1C1(N2CC3(CN(N4CCN(C5COC5)CC4)C3)C2)C(=O)N(S(=O)(=O)c2ccc(OC)cn2)C2C=CC(C#N)=CC21 (racemic)
CCOc1ccc(OC)c(C2(N3CC4(CN(C5CCN(C6COC6)CC5)C4)C3)C(=O)N(S(=O)(=O)c3ccc(OC)cn3)C3C=CC(C#N)=CC32)c1 (racemic)
COc1ccc(S(=O)(=O)N2C(=O)C(c3cccnc3OC(C)(F)F)(N3CC4(CN(C5CCN(C)CC5)C4)C3)C3C=C(C#N)C=CC32)nc1 (racemic)
CCOc1ncccc1C1(N2CC3(CN(N4CCN(C)CC4)C3)C2)C(=O)N(S(=O)(=O)c2ccc(OC)cn2)C2C=CC(C#N)=CC21 (racemic)
CCOc1ccc(OC)c(C2(N3CC4(CN(C5CCN(C)CC5)C4)C3)C(=O)N(S(=O)(=O)c3ccc(OC)cn3)C3C=CC(C#N)=CC32)c1 (racemic; form 1)
COc1ccc(S(=O)(=O)N2C(=O)C(c3cccnc3OC)(N3CC4(CN(C5CCN(C)CC5)C4)C3)C3C=C(C#N)C=CC32)nc1 (racemic; form 1)
CCOc1ccc(OC)c(C2(N3CC4(CN(C5CCN(C)CC5)C4)C3)C(=O)N(S(=O)(=O)c3ccc(OC)cn3)C3C=CC(C#N)=CC32)c1 (racemic; form 2)
COc1ccc(S(=O)(=O)N2C(=O)C(c3cccnc3OC)(N3CC4(CN(C5CCN(C)CC5)C4)C3)C3C=C(C#N)C=CC32)nc1 (racemic; form 2)
COc1ccc(S(=O)(=O)N2C(=O)C(c3ccccc3OC)(N3CC4(CN(C5CCN(C6COC6)CC5)C4)C3)C3C=C(C#N)C=CC32)nc1 (single isomer, unassigned; (+))
